How the values were obtained:
[1] = test system: patients with alcohol dependence; assay: Clinical efficacy on the reduction of alcohol consumption (Studies 12014A, 12023A, 12013A); type: in vivo, human
Description: The efficacy of nalmefene in the reduction of alcohol consumption in patients with alcohol dependence (DSM-IV) has been evaluated in studies 12014A, 12023A and 12013A. The efficacy of nalmefene was measured using two co-primary endpoints: the change from baseline in the monthly number of heavy drinking days (HDDs) and the change from baseline in the average daily total alcohol consumption (TAC).
(§1) Another approach to identify patients with an anxiety disorder is by defining Anxiety Disorder at baseline as any ongoing medical history coded by the Medical Dictionary for Regulatory Activities (MedDRA) Preferred Term as ‘Acute Stress Disorder’, ‘Agoraphobia’, ‘Anxiety’, ‘Anxiety Disorder’, ‘Emotional Distress’, ‘Generalised Anxiety Disorder’, ‘Nervousness’, ‘Nosophobia’, ‘Obsessive-Compulsive Disorder’, ‘Panic Attack’, ‘Panic Disorder’, ‘Panic Disorder With Agoraphobia’, ‘Post-Traumatic Stress Disorder’, ‘Social Phobia’ and/or ‘Stress and Tension’. In examples 1 and 2 below patients classified with an anxiety disorder at baseline were selected based on said MedDRA terms.
The efficacy of nalmefene on the reduction of alcohol consumption in patients with alcohol dependence (DSM-IV) was evaluated in two efficacy studies (Study 12014A and Study 12023A) and a safety study (Study 12013A). All studies were multi-national, multi-site, randomised, double blind, two parallel group, placebo controlled studies. The efficacy was evaluated over 24 weeks of treatment. The studies included outpatients, aged ≧18 years, with a primary diagnosis of alcohol dependence. […] Patients with psychiatric co-morbidity (that is, patients who used stable doses of antipsychotics and/or certain antidepressants) were also included unless the treatment of the psychiatric comorbidity had to take priority over treatment of the drinking problem, or was likely to interfere with study treatment or impairs treatment compliance.
The studies included in total 1997 patients, 1173 of whom were treated with nalmefene 18 mg in an as-needed dosing regimen. A motivational and adherence enhancing intervention was administered to all the patients to support the patients in changing their behavior and to enhance adherence to treatment.
The efficacy of nalmefene on the reduction of alcohol consumption was measured using two co-primary endpoints: the change in the monthly number of heavy drinking days (HDDs) and the change in the average daily total alcohol consumption (TAC). A HDD was defined as a day with a consumption ≧60 g alcohol for men and ≧40 g for women.

[2] = test system: patients with alcohol dependence; assay: Clinical efficacy measured by POMS score (Studies 12014A, 12023A, 12013A); type: in vivo, human
Description: The term “POMS” is an abbreviation of “profile of mood states” and refers to a self-report inventory scale developed to assess the effect of e.g. new medication on mood states and mood changes. The scale measures six domains: Tension-Anxiety, Depression-Rejection, Anger-Hostility, Vigour-Activity, Fatigue-Inertia, and Confusion-Bewilderment. A total mood disturbance (TMD) score can be calculated. In general, a lower POMS score indicates a better mood state than a higher score except for vigour-activity, for which a higher POMS score indicates a better mood state. The scale has been described e.g. by McNair et al., Profile of mood states. San Diego, Calif.: Educational and Industrial Testing Service and by Nyenhios and Yamamoto, J. Clin. Psychology, (1999), Vol. 55(1): 79-86.
Assessment of POMs scores in Studies 12014A, 12023A and 12013A was used to evaluate the effect of nalmefene on mood states and mood changes throughout the study. […] Tables 5 and 7 indicate that patients with an anxiety disorder at baseline had higher POMS scores at baseline when compared to those patients without anxiety disorders. The change in POMS scores from baseline are illustrated in FIGS. 3-9. […] A remarkable improvement is seen over the weeks 8-20.
as §1
Assessment of POMs scores in Studies 12014A, 12023A and 12013A was used to evaluate the effect of nalmefene on mood states and mood changes throughout the study. […]

[3] = test system: patients with alcohol dependence; assay: Clinical efficacy measured by SF-36 Mental Component Summary (FAS, OC); type: in vivo, human; conditions: for SF-36 Mental Component Summary, Change to Week 12, Mean ± SE / SF-36 Mental Component Summary, Change to Week 24, Mean ± SE: pooled studies, FAS, OC
Description: Another method for measuring a patient's health status is by the SF-36 which is a patient-reported outcome developed as a general measure of perceived health status. The mental component summary score focuses on mental aspects of health related quality of life. Higher scores correspond to better health status or well-being.

[4] = test system: rats; assay: Vogel test in rats; type: in vivo, rat; conditions: 0.01, 0.1 and 1 mg/kg s.c. 30 minutes before the test; 3-minute test; vs vehicle
Description: Pairing of water drinking with […] shock punishment will induce a conflict in water deprived rats and lead to less frequent water seeking behaviour. Pretreatment of rats with an anxiolytic will counteract the conflict and increase the frequency of water seeking. The test can be conducted as described in detail by Vogel et al., Psychopharmacology, (1971), 21: pp. 1-7. In brief, rats are adapted to the test chambers, a Plexiglas box, equipped with a grid floor made of stainless steel bars and a drinking bottle with tap water. After the adaptation period, the animals are deprived of water and then placed in the test chamber for free access to the drinking bottle for a short period. Afterwards, they are allowed a short free-drinking session in their home cage. After another water deprivation period, the rats are placed again in the test chamber and allowed to drink for a very short time (30 s); immediately afterwards, their drinking attempts are punished with an electric shock. […] The number of shocks accepted throughout a 5-min experimental session was recorded.
Nalmefene was tested as the sole active compound in the Vogel model in rats. […] The number of punished drinks was counted during a 3-minute test. Nalmefene was evaluated at 3 doses (0.01, 0.1 and 1 mg/kg), administered s.c. 30 minutes before the test, and compared with a vehicle control group.

[5] = test system: rats; assay: Elevated plus maze test in rats; type: in vivo, rat; conditions: 0.01, 0.1 and 1 mg/kg s.c. 30 minutes before the test; 5 minutes; vs vehicle
Description: Rats have an aversion of open spaces and avoid them by confining movements to enclosed spaces or to the edges of a bounded space. Anxiolytic activity can be tested in a test setting consists of a plus-shaped apparatus with two open and two enclosed arms, each with an open roof, elevated 40-70 cm from the floor according to Pellow et al., J. Neurosci. Methods. (1985) August; 14(3):149-67. Pretreatment of rats with anxiolytic active compounds will increase in the proportion of time spent in the open arms (time in open arms/total time in open or closed arms), and an increase in the proportion of entries into the open arms (entries into open arms/total entries into open or closed arms). Total number of arm entries and number of closed-arm entries can be employed as measures of general activity.
Nalmefene was tested as the sole active compound in the elevated plus maze test in rats. A rat was placed in the centre of the plus-maze and left to explore for 5 minutes. The number of entries into the open and closed arms and the time spent on the open arms were recorded. The % of open arm entries (open arm entries/total arm entries×100) was calculated. Nalmefene was evaluated at 3 doses (0.01, 0.1 and 1 mg/kg), administered s.c. 30 minutes before the test, and compared with a vehicle control group.

[6] = test system: Mice (NMRI); assay: Marble burying test in mouse; type: in vivo; conditions: 0.01 or 1 mg/kg s.c.
Description: The method, which detects anxiolytic/tranquillizing activity, follows that described by Broekkamp et al (Eur. J. Pharmacol., 126, 223-229, 1986). Mice exposed to novel objects (marbles) will bury them in the sawdust floor covering. Anxiolytics decrease the number of marbles buried at non-sedative doses.
Nalmefene was tested in the marble burying model as the sole active compound. Mice (NMRI) were individually placed in transparent plastic cages (33×21×18 cm) with 5 cm of sawdust on the floor and 25 marbles grouped in the centre of the cage. The cage was covered with an inverted plastic cage. Each test cage, together with the marbles, was impregnated with mouse odor before-hand by leaving 10 mice in the cage for 15 minutes. These mice then played no further role in the experiment.
The number of marbles covered by sawdust (⅔ or more) was counted at the end of a 30 minute test. 12 mice were studied per group. The test was performed blind. Nalmefene was evaluated at 3 doses (0.01, 0.1 and 1 mg/kg), administered s.c. 30 minutes before the test, and compared with a vehicle control group. […]
Data with the test substance were analysed by comparing treated groups with vehicle control using Kruskall-Wallis test followed by Mann-Whitney U tests. Data with the reference substance were analysed using Mann-Whitney U tests. […]

[7] = biological target: μ receptor (Homo sapiens, UniProt P35372); conditions: in vitro studies; cited from earlier work
[8] = biological target: δ receptor (Homo sapiens, UniProt P41143); conditions: in vitro studies; cited from earlier work
[9] = biological target: κ receptor (Homo sapiens, UniProt P41145); conditions: in vitro studies; cited from earlier work
[10] = total patient group, nalmefene 18 mg as-needed vs placebo
[11] = no anxiety disorder at baseline

Chain of κ receptor (P41145 whole entry): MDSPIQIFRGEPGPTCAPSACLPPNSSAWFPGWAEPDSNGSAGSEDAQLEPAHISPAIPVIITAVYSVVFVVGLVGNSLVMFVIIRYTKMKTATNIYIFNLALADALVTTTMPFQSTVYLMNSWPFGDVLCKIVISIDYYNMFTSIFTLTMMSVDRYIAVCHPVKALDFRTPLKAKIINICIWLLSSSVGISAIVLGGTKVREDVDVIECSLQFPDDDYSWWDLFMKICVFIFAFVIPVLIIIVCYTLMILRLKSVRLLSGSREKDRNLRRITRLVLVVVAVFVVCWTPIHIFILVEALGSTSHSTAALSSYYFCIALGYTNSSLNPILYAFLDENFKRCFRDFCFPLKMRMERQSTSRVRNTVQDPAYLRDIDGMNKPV
Chain of μ receptor (P35372 whole entry): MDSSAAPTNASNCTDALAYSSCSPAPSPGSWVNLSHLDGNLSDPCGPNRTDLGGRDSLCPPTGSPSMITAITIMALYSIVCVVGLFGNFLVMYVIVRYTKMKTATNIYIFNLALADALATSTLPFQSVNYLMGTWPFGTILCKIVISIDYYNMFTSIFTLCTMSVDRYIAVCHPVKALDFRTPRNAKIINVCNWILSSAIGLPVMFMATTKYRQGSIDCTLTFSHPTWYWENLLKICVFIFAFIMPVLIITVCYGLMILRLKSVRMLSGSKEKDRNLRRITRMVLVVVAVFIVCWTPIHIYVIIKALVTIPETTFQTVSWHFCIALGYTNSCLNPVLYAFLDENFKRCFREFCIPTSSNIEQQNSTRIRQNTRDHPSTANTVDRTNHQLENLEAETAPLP
Chain of δ receptor (P41143 whole entry): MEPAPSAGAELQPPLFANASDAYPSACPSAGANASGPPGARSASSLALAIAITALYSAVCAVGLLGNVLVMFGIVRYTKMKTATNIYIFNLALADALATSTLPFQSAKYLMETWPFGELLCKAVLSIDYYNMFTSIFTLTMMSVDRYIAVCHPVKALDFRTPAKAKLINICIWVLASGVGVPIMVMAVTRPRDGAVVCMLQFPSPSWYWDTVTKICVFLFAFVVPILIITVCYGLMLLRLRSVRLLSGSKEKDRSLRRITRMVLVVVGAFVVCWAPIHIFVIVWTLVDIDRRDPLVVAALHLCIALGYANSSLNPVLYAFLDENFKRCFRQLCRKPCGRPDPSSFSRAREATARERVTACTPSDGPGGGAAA

C=C1CC[C@@]2(O)[C@H]3Cc4ccc(O)c5c4[C@@]2(CCN3CC2CC2)[C@H]1O5 [Nalmefene, 17-(cyclopropylmethyl)-4,5-alpha-epoxy-6-methylenemorphinan-3,14-diol]
alcohol consumption ([1]; patients with an anxiety disorder at baseline): significally reduced
reducing TAC (change from baseline in average daily total alcohol consumption) [1, 10]: superior to placebo
reducing the number of HDDs (change from baseline in monthly number of heavy drinking days) [1, 10]: superior to placebo
difference between nalmefene and placebo measured in HDDs and TAC ([1]; week 24, patients with an anxiety disorder at baseline compared with patients without): merely at the same level
POMS score, nalmefene vs placebo ([2]; patients with an anxiety disorder at baseline, end of the study): better POMS score
POMS total mood disturbance, tension-anxiety, depression-rejection, anger-hostility and confusion, nalmefene vs placebo ([2]; patients with an anxiety disorder at baseline, weeks 4-24): better POMS scores
POMS score, nalmefene vs placebo ([2]; patients without an anxiety disorder at baseline, throughout the study): no pronounced difference between nalmefene and placebo
difference between nalmefene and placebo in the change from baseline in SF-36 mental component summary score ([3]; Week 12 and Week 24, patients with an anxiety disorder at baseline compared with patients without): more pronounced
SF-36 Mental Component Summary, Change to Week 12, Mean ± SE ([3]; anxiety disorder at baseline): 6.23 ± 1.47
SF-36 Mental Component Summary, Change to Week 24, Mean ± SE ([3]; anxiety disorder at baseline): 7.56 ± 2.24
SF-36 Mental Component Summary, Change to Week 12, Mean ± SE [3, 11]: 4.77 ± 0.37
SF-36 Mental Component Summary, Change to Week 24, Mean ± SE [3, 11]: 5.65 ± 0.43
number of punished drinks [4]: No significant effect
open and closed arm entries, time spent on the open arms, % of open arm entries [5]: No significant effect
effect on number of marbles covered by sawdust compared with vehicle controls [6]: no significant effects
activity at the μ receptor [7]: antagonist activity
activity at the δ receptor [8]: antagonist activity
activity at the κ receptor [9]: partial agonist activity
